# Tests used:
# Assay type in all cases: cell-based
# [1] = target: T1, plant protox mutants (MzC-1Val, maize protox-1) in SASX38 (Arabidopsis thaliana, UniProt P55826, A220V/A252T/A259N/A262P/A292S/A82G/A83V/D204A/D323E/D487E/D93A/DEL80-81/E103P/E263P/E288N/E311D/E351S/E499D/F107Y/F178L/F250I/F483L/G171P/G277A/G306S/G313K/G344N/G441S/H340Y/I100T/I174L/I370V/I421V/I485L/I71T/I87L/INS101VE/K237R/K257S/K359R/K388Q/K457N/K465V/K78R/K92R/L137F/L159P/L310S/L325V/L345I/L360F/L436V/L86V/M122V/N105E/N149E/N241T/N258K/N316V/N355D/N459T/N85D/P266A/P418D/P458S/P84G/Q240E/Q272K/R284A/R293S/S186P/S291T/S305T/S312D/S330A/S352D/S369T/S430A/S439T/S460A/S491A/S492A/S495R/S496G/T141N/T160A/T318E/T379K/T397S/T461V/T488A/T494D/T56K/V126A/V334I/V337I/V95P); experiment: Bacterial cross-tolerance testing of resistant mutant plasmids in SASX38, maize protox-1 mutant; design: key: + = 10× or more tolerant than WT; ++ = 100× or more tolerant than WT; − = no cross tolerance; settings: mutant MzC-1Val vs WT plasmid in SASX38
# T1 construct: expressed in transfected cells; host or cells: E. coli SASX38 (hemG mutant)
# Method: (§1) Resistant mutant plasmids, originally identified based on resistance against a single protox inhibitory herbicide, were tested against a spectrum of other protox inhibiting compounds. For this test, the SASX38 strain containing the wild-type plasmid is plated on a range of concentrations of each compound to determine the lethal concentration for each one. Resistant mutant plasmids in SASX38 are plated and scored for the ability to survive on a concentration of each compound at least 10 fold higher than the concentration that is lethal to the SASX38 strain containing the wild-type plasmid.
# [2] = target: T2, plant protox mutants (Arabidopsis protox-1) in SASX38 (Arabidopsis thaliana, UniProt P55826, S305L/T56K/Y426I); experiment: Bacterial cross-tolerance testing of resistant mutant plasmids in SASX38, Arabidopsis protox-1 mutants; design: key to Cross tolerance, AraC-1Val / Cross tolerance, AraC-2Cys / Cross tolerance, AraC-1Thr / Cross tolerance, AraC-3Thr / Cross tolerance, AraC-2Ile / Cross tolerance, AraC-2Cys + AraC425Ser: + = 10× or more tolerant than WT; ++ = 100× or more tolerant than WT; − = no cross tolerance; settings: mutant AraC-2Ile + AraC305Leu
# T2 construct: contains only 17 amino acids of the putative chloroplast transit peptide; expressed in transfected cells; host or cells: E. coli SASX38 (hemG mutant)
# Method: as §1
# [3] = target: T3, plant protox mutants (Arabidopsis protox-1) in SASX38 (Arabidopsis thaliana, UniProt P55826, A220L/T56K/Y426L); experiment: as above; design: key to Cross tolerance, AraC-1Val / Cross tolerance, AraC-2Cys / Cross tolerance, AraC-1Thr / Cross tolerance, AraC-3Thr / Cross tolerance, AraC-2Ile / Cross tolerance, AraC-2Cys + AraC425Ser: + = 10× or more tolerant than WT; ++ = 100× or more tolerant than WT; − = no cross tolerance; settings: mutant AraC-1Leu + AraC-2Leu
# T3 construct: contains only 17 amino acids of the putative chloroplast transit peptide; expressed in transfected cells; host or cells: E. coli SASX38 (hemG mutant)
# Method: as §1
# [4] = target: T4, plant protox mutants (Arabidopsis protox-1) in SASX38 (Arabidopsis thaliana, UniProt P55826, T56K/Y426I); experiment: as above; design: key to Cross tolerance, AraC-1Val / Cross tolerance, AraC-2Cys / Cross tolerance, AraC-1Thr / Cross tolerance, AraC-3Thr / Cross tolerance, AraC-2Ile / Cross tolerance, AraC-2Cys + AraC425Ser: + = 10× or more tolerant than WT; ++ = 100× or more tolerant than WT; − = no cross tolerance; settings: mutant AraC-2Ile
# T4 construct: contains only 17 amino acids of the putative chloroplast transit peptide; expressed in transfected cells; host or cells: E. coli SASX38 (hemG mutant)
# Method: as §1
# [5] = target: T5, plant protox mutants (Arabidopsis protox-1) in SASX38 (Arabidopsis thaliana, UniProt P55826, A220L/T56K/Y426M); experiment: as above; design: key to Cross tolerance, AraC-1Val / Cross tolerance, AraC-2Cys / Cross tolerance, AraC-1Thr / Cross tolerance, AraC-3Thr / Cross tolerance, AraC-2Ile / Cross tolerance, AraC-2Cys + AraC425Ser: + = 10× or more tolerant than WT; ++ = 100× or more tolerant than WT; − = no cross tolerance; settings: mutant AraC-1Leu + AraC-2Met
# T5 construct: contains only 17 amino acids of the putative chloroplast transit peptide; expressed in transfected cells; host or cells: E. coli SASX38 (hemG mutant)
# Method: as §1
# [6] = target: T6, plant protox mutants (Arabidopsis protox-1) in SASX38 (Arabidopsis thaliana, UniProt P55826, T56K/Y426C); experiment: as above; design: key to Cross tolerance, AraC-1Val / Cross tolerance, AraC-2Cys / Cross tolerance, AraC-1Thr / Cross tolerance, AraC-3Thr / Cross tolerance, AraC-2Ile / Cross tolerance, AraC-2Cys + AraC425Ser: + = 10× or more tolerant than WT; ++ = 100× or more tolerant than WT; − = no cross tolerance; settings: mutant AraC-2Cys vs WT plasmid in SASX38
# T6 construct: contains only 17 amino acids of the putative chloroplast transit peptide; expressed in transfected cells; host or cells: E. coli SASX38 (hemG mutant)
# Method: as §1
# [7] = tested on: plant protox mutants (Arabidopsis protox-1) in SASX38; experiment: as above; design: key to Cross tolerance, AraC-1Val / Cross tolerance, AraC-2Cys / Cross tolerance, AraC-1Thr / Cross tolerance, AraC-3Thr / Cross tolerance, AraC-2Ile / Cross tolerance, AraC-2Cys + AraC425Ser: + = 10× or more tolerant than WT; ++ = 100× or more tolerant than WT; − = no cross tolerance; settings: mutant AraC-3Thr vs WT plasmid in SASX38
# Method: as §1
# [8] = target: T7, plant protox mutants (Arabidopsis protox-1) in SASX38 (Arabidopsis thaliana, UniProt P55826, A220V/T56K); experiment: as above; design: key to Cross tolerance, AraC-1Val / Cross tolerance, AraC-2Cys / Cross tolerance, AraC-1Thr / Cross tolerance, AraC-3Thr / Cross tolerance, AraC-2Ile / Cross tolerance, AraC-2Cys + AraC425Ser: + = 10× or more tolerant than WT; ++ = 100× or more tolerant than WT; − = no cross tolerance; settings: mutant AraC-1Val vs WT plasmid in SASX38
# T7 construct: contains only 17 amino acids of the putative chloroplast transit peptide; expressed in transfected cells; host or cells: E. coli SASX38 (hemG mutant)
# Method: as §1
# T1 sequence (P55826 other isoform, or with tags, fused parts or gaps with the stated changes): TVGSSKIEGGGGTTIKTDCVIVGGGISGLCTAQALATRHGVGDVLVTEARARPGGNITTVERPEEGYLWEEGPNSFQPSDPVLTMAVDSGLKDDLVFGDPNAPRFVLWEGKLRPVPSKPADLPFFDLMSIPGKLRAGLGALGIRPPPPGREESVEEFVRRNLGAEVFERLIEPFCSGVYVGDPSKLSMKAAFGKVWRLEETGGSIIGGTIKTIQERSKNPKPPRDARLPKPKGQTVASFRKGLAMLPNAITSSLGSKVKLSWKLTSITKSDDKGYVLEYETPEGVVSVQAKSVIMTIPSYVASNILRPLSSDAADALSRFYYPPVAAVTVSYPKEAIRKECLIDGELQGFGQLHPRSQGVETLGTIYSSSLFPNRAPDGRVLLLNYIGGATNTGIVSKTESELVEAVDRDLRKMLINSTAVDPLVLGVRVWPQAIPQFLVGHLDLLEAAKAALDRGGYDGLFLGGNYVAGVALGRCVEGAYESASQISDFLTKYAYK
# T2 sequence (P55826 41-537 T56K/S305L/Y426I): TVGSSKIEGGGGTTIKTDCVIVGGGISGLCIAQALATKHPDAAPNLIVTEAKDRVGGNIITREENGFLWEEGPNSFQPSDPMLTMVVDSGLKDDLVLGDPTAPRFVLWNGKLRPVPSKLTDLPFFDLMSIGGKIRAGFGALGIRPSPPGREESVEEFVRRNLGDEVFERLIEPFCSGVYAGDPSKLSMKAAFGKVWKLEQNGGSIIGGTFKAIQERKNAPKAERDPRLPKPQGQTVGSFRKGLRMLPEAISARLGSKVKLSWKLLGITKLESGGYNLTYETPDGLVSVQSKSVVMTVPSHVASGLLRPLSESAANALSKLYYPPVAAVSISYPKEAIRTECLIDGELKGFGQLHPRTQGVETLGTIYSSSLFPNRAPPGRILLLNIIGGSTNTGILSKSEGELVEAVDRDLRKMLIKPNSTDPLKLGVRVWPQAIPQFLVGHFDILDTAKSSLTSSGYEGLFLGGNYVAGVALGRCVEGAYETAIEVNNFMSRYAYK
# T5 sequence (P55826 41-537 T56K/A220L/Y426M): as the sequence (P55826 41-537 T56K/S305L/Y426I) above, with A180L, L265S, I386M counted along it
# T4 sequence (P55826 41-537 T56K/Y426I): as the sequence (P55826 41-537 T56K/S305L/Y426I) above, with L265S counted along it
# T7 sequence (P55826 41-537 T56K/A220V): as the sequence (P55826 41-537 T56K/S305L/Y426I) above, with A180V, L265S, I386Y counted along it
# T3 sequence (P55826 41-537 T56K/A220L/Y426L): as the sequence (P55826 41-537 T56K/S305L/Y426I) above, with A180L, L265S, I386L counted along it
# T6 sequence (P55826 41-537 T56K/Y426C): as the sequence (P55826 41-537 T56K/S305L/Y426I) above, with L265S, I386C counted along it
structure (smiles),measurement,setting,value
COC(=O)CSc1cc(N=c2sc(=O)n3n2CCCC3)c(F)cc1Cl [VIIa],"Cross tolerance, MzC-1Val",[1],+ (+ = 10× or more tolerant than WT)
same,"Cross tolerance, AraC-2Ile + AraC305Leu",[2],++ (++ = 100× or more tolerant than WT)
same,"Cross tolerance, AraC-1Leu + AraC-2Leu",[3],++ (++ = 100× or more tolerant than WT)
same,"Cross tolerance, AraC-2Ile",[4],++ (++ = 100× or more tolerant than WT)
same,"Cross tolerance, AraC-1Leu + AraC-2Met",[5],++ (++ = 100× or more tolerant than WT)
same,"Cross tolerance, AraC-2Cys",[6],+ (+ = 10× or more tolerant than WT)
same,"Cross tolerance, AraC-3Thr",[7],−
same,"Cross tolerance, AraC-1Val",[8],+ (+ = 10× or more tolerant than WT)
CCOC(=O)COC(=O)c1cc(Oc2ccc(C(F)(F)F)cc2Cl)ccc1[N+](=O)[O-] [IV],"Cross tolerance, MzC-1Val",[1],−
same,"Cross tolerance, AraC-2Ile + AraC305Leu",[2],+ (+ = 10× or more tolerant than WT)
same,"Cross tolerance, AraC-1Leu + AraC-2Leu",[3],++ (++ = 100× or more tolerant than WT)
same,"Cross tolerance, AraC-2Ile",[4],−
same,"Cross tolerance, AraC-1Leu + AraC-2Met",[5],+ (+ = 10× or more tolerant than WT)
same,"Cross tolerance, AraC-2Cys",[6],−
same,"Cross tolerance, AraC-3Thr",[7],++ (++ = 100× or more tolerant than WT)
same,"Cross tolerance, AraC-1Val",[8],++ (++ = 100× or more tolerant than WT)
CCCCCOC(=O)COc1cc(N2C(=O)C3=C(CCCC3)C2=O)c(F)cc1Cl [XIV],"Cross tolerance, MzC-1Val",[1],+ (+ = 10× or more tolerant than WT)
same,"Cross tolerance, AraC-2Ile + AraC305Leu",[2],++ (++ = 100× or more tolerant than WT)
same,"Cross tolerance, AraC-1Leu + AraC-2Leu",[3],++ (++ = 100× or more tolerant than WT)
same,"Cross tolerance, AraC-2Ile",[4],++ (++ = 100× or more tolerant than WT)
same,"Cross tolerance, AraC-1Leu + AraC-2Met",[5],++ (++ = 100× or more tolerant than WT)
same,"Cross tolerance, AraC-2Cys",[6],−
same,"Cross tolerance, AraC-3Thr",[7],+ (+ = 10× or more tolerant than WT)
same,"Cross tolerance, AraC-1Val",[8],+ (+ = 10× or more tolerant than WT)
CC(C)OC(=O)c1cc(-n2c(=O)cc(C(F)(F)F)n(C)c2=O)ccc1Cl [XI],"Cross tolerance, MzC-1Val",[1],+ (+ = 10× or more tolerant than WT)
same,"Cross tolerance, AraC-2Ile + AraC305Leu",[2],++ (++ = 100× or more tolerant than WT)
same,"Cross tolerance, AraC-1Leu + AraC-2Leu",[3],++ (++ = 100× or more tolerant than WT)
same,"Cross tolerance, AraC-2Ile",[4],++ (++ = 100× or more tolerant than WT)
same,"Cross tolerance, AraC-1Leu + AraC-2Met",[5],++ (++ = 100× or more tolerant than WT)
same,"Cross tolerance, AraC-2Cys",[6],+ (+ = 10× or more tolerant than WT)
same,"Cross tolerance, AraC-3Thr",[7],++ (++ = 100× or more tolerant than WT)
same,"Cross tolerance, AraC-1Val",[8],−
